Reference: patent US6326402A, “Methods for treating viral infections using a compound capable of inhibiting microtubules” (Octamer, Inc., priority 1998, dated 2001)
Entries after “also recorded” stand apart in the source; their conditions may differ. Read-outs that look alike come from different tables or passages of the source.

Assays:
viral replication = experiment: Anti-viral activity of DIME analogues and homologues (cellular assays and in vivo); type: cell-based
human cancer cells = conditions: relative to DIME; U.S. Ser. Nos. 08/655,267 and 08/833,272; cited from earlier work
[1] = Serum half-life and bioavailability of 14C-labeled DIME in mice; type: in vivo
Description: Mice were orally dosed with 126 mg/kg 14C-labeled DIME (Compound 1). After dosing, blood sampling times were 15 and 30 minutes and 1, 2, 4, 6, 8 and 24 hours. Aliquots (50 μL) of blood were assayed in a liquid scintillation counter and data expressed as microgram-equivalents per mL.
The blood level data were analyzed by the RSTRIP method (Micromath, Salt Lake City, Utah). Parallel groups of mice were dosed intravenously with 24.5 mg/kg 14C-labeled DIME and blood sampling times were 10, 20 and 30 minutes and 1, 2, 4, 6 and 8 hours.

tadpole metamorphosis = conditions: as determined by tadpole metamorphosis; cited from earlier work
tumor cells = conditions: cited from earlier work
[2] = system: uptake of iodine into the thyroid; conditions: cited from earlier work
[3] = system: MDA-MB-231 (human mammary cancer) cells; experiment: MDA-MB-231 xenografts in nude mice, tumor volume; type: in vivo, human tumor xenograft in nude mice
Description: The ability of human tumors to grow as xenografts in athymic mice (e.g., nude mice) provides a useful in vivo model for studying the biological response to therapies for human tumors. Since the first successful xenotransplantation of human tumors into athymic mice ([…] et al., 1969, Acta Pathol. Microbial. Scand. 77:758-760), many different human tumor cell lines (e.g., mammary, lung, genitourinary, gastrointestinal, head and neck, glioblastoma, bone and malignant melanomas) have been successfully transplanted and grown into nude mice. Human mammary tumor cell lines, including MCF-7, ZR75-1 and MDA-MB-23 1, have been established as subcutaneous grafts in nude mice (Warri et al., 1991, Intl. J. Cancer 49:616-23; Ozzello et al., 1980, Eur. J. Cancer 16:553-559; Osbourne et al., 1985, Cancer Res. 45:584-590; Siebert et al., 1983, Cancer Res. 43:2223-2239). […] Experimental Protocol MDA-MB-231 (human mammary cancer) cells were obtained from American Type Culture Collection (Rockville, Md.) and maintained in the recommended growth media. Twenty nude mice were each inoculated subcutaneously with MDA-MB-231 cells (10^6 cells/100 […]). To one group of ten mice, DIME was administered by gavage (250 mg/kg, 10 mL/kg in corn oil) once […] per day, 5 days per week, for a total of 32 days. The other (control) group of ten mice was given administered vehicle only according to the same dosing schedule. Tumors were measured twice weekly using a Vernier caliper, and the mean tumor volume was determined at each time point. Comparisons between groups were made using an unpaired, two-tailed t-test and the results were analyzed using analysis of variance.

tubulin [4] = conditions: cited from earlier work
[5] = Toxicity to human white cells; type: cell-based; conditions: white blood cells
Description: (§1) Nocodazole is a well known antitubulin drug. It is highly toxic. Thus, we established a concentration that is relatively harmless to human white cells, i.e. between 0.1 and 1 μM. At […] , nocodazole depressed HIV production by 40% thereby simulating the action of DIME. However DIME is completely nontoxic up to about 320 μM.

[6] = system: non-malignant mouse pituitary adenoma; conditions: in vivo; cited from earlier work
tubulin [7] = conditions: cited from earlier work; remark: listed apart in the source
[8] = Toxicity, daily oral dosing of nude mice; type: in vivo; conditions: 1 g/kg daily, 12-15 days
Description: Ten nude mice were administered a daily oral dose of ^14 C-labeled DIME (Compound 1) (1.0 g/kg, 0.1 ml, in corn oil) for a period of 12-15 days.

[9] = system: HIV-1 (strains HIV-, 89.6 and HIV-1 SF162); experiment: HIV replication in stimulated human lymphocytes (reverse transcriptase assay); type: cell-based, HIV-1 in human lymphocytes
Description: Inhibition of HIV replication in human white cells by DIME
Lymphocytes were obtained from the Sacramento Blood Bank. After stimulation of cells with phytohaemagglutinine for 3 days, cells were exposed to varying concentrations of DIME (see abscissa of FIG. 1) and incubated for 2 hours at 37° C., 5% CO2, followed by the addition of 3.2×10^5 TCID50 HIV-1 viruses (strains HIV-, 89.6 and HIV-1 SF162). Viral growth was allowed to proceed for 3 days.
as §1

apoptosis = conditions: disruption of microtubules; cited from earlier work
HIV harboring cells = type: in vitro ADME, human
human white cells = conditions: cited from earlier work
[10] = system: Ras and apoptosis-regulating kinases (ASK1), JNK pathway, MEKK1/SEK1 and c-Jun/AP-1; conditions: cited from earlier work
[11] = compared with vincristine; cited from earlier work

With `CCCOc1ccc(Oc2c(I)cc(C(=O)OC)cc2I)cc1` [Compound 3, Methyl 3,5-diiodo-4-(4'-n-propoxyphenoxy)benzoate] the anti-viral activity (viral replication) was “inactive”.

For `CCOC(=O)c1cc(I)c(Oc2ccc(OC)cc2)c(I)c1` [Compound 5, Ethyl 3,5-diiodo-4-(4'-methoxyphenoxy)benzoate], the anti-viral activity (viral replication) was “inactive”.

For `COC(=O)c1cc(I)c(Oc2ccc(OC)cc2Cl)c(I)c1` [Compound 14, Methyl 3,5-diiodo-4-(2'-chloro-4'methoxyphenoxy)benzoate], the “maximal inhibitory action on the growth of human cancer cells as compared to DIME” value (human cancer cells) is given as “about 25%”.

For `COC(=O)c1cc(I)c(Oc2ccc(OC)cc2)c(I)c1` [DIME, Methyl 3,5-diiodo-4-(4'-methoxyphenoxy)benzoate], the “DIME uptake by normal or stimulated white cells” value (human lymphocytes) was “do not take up significant quantities”, the anti-viral activity (viral replication) was “highly active” and the “i.v. serum half-life (t1/2)” value ([1]; i.v., 24.5 mg/kg) was “about 4 hours”. The “area under the blood concentration-time curve, intravenous” value ([1]; intravenous, 24.5 mg/kg, mice, 14C-labeled DIME) was 156 µg·h/mL, the “half-life (t1/2)” value ([1]; mice, 14C-labeled DIME, 126 mg/kg oral, 24.5 mg/kg i.v.) was 2 to 2.5 h and the “area under the blood concentration-time curve, oral” value ([1]; oral, 126 mg/kg, mice, 14C-labeled DIME) was 665.28 µg·h/mL. For the same molecule, the half-life in serum ([1]; serum, route and species not stated) was “about 4 hours”, the “metabolic or cell differentiating activity” value (tadpole metamorphosis) was “no significant metabolic or cell differentiating activity” and the “permeation into tumor cells in vivo” value (tumor cells) was “selective permeation into tumor cells in vivo”. For the same molecule, the “inhibition of uptake of iodine into the thyroid” value ([2]; rats, as compared to thyroxine) was 15%, the “MDA-MB-231 tumor volume Day 14 ± SEM” value ([3]; 250 mg/kg by gavage, 5 days per week, control 284.6 ± 42.0, p = 0.06) was 172.0 ± 34.3 and the “MDA-MB-231 tumor volume Day 21 ± SEM” value ([3]; 250 mg/kg by gavage, 5 days per week, control 622.2 ± 58.1, p = 0.02) was 285.7 ± 62.4. For the same molecule, the “MDA-MB-231 tumor volume Day 28 ± SEM” value ([3]; 250 mg/kg by gavage, 5 days per week, control 979.0 ± 154, p = 0.01) was 430 ± 85.6, the “MDA-MB-231 tumor volume Day 32 ± SEM” value ([3]; 250 mg/kg by gavage, 5 days per week, control 1176.6 ± 222.4, p = 0.01) was 543.8 and the “% decrease of tumor volume, Day 14” value ([3]; 250 mg/kg, vs vehicle control) was 40%. For the same molecule, the “% decrease of tumor volume, Day 21” value ([3]; 250 mg/kg, vs vehicle control) was 54%, the “% decrease of tumor volume, Day 28” value ([3]; 250 mg/kg, vs vehicle control) was 56% and the “% decrease of tumor volume, Day 32” value ([3]; 250 mg/kg, vs vehicle control) was 54%. For the same molecule, the “reduction of malignant tumor growth” value ([3]; non-optimized treatment regimen) was “significant reduction of malignant tumor growth”, the binding to microtubules (tubulin [4]; shown experimentally) was “binding to cellular microtubules” and the MNTC ([5]; up to about, read-out: concentration up to which completely nontoxic) was about 320 µM. For the same molecule, the “growth inhibition of non-malignant mouse pituitary tumor” value [6] was “no inhibitory activity”, the “inhibition of tubulin polymerization” value (tubulin [7]) was “inhibition of tubulin polymerization” and the “ill effects on daily oral dosing” value [8] was “No ill effects”. The “reverse transcriptase activity in cell supernatant as a function of DIME concentration (FIG. 1)” value ([9]; cpm, 2 h preincubation, viral growth 3 days) was “progressively diminishes as a function of DIME concentration; also recorded: decreases with increased "DIME" concentration”, the “inhibition of HIV replication in human lymphocytes, concentration compared with microtubule disruption in tumor cells” value ([9]; human lymphocytes) was “at the same concentration as it disrupts microtubules in tumor cells” and the induction of apoptosis (apoptosis) was “induces apoptosis”. The “DIME uptake by HIV infected cells” value (HIV harboring cells) was “significant drug uptake”.

In the case of `COC(=O)Nc1nc2ccc(C(=O)c3cccs3)cc2[nH]1` [Nocodazole, reference compound], the MNTC [5] is listed as 0.1 to 1 µM, the “toxicity (general statement)” value (human white cells) is listed as “highly toxic” and the inhibition at 0.1 µM ([9]; Human immunodeficiency virus 1, Lymphocyte, 72 h, read-out: depression of HIV production) is listed as 40%.

For `CC(=O)O[C@H]1C(=O)[C@@]2(C)[C@H]([C@H](OC(=O)c3ccccc3)[C@]3(O)C[C@H](OC(=O)[C@H](O)[C@@H](NC(=O)c4ccccc4)c4ccccc4)C(C)=C1C3(C)C)[C@]1(OC(C)=O)CO[C@@H]1C[C@@H]2O` [taxol], the “activation of kinase pathways” value [10] is given as “can activate both Ras and apoptosis-regulating kinases (ASK1), pathways”.

For `NC(Cc1cc(I)c(Oc2cc(I)c(O)c(I)c2)c(I)c1)C(=O)O` (stereo not shown) [thyroxine, reference compound], the “metabolic or cell differentiating activity” value (tadpole metamorphosis) is given as “induces cell differentiation”, the “suppression of iodine uptake by the thyroid” value ([2]; rat, in vivo) is given as “suppresses uptake of iodine by the thyroid” and the “growth inhibition of non-malignant mouse pituitary tumor” value [6] is given as “depress growth”.

For `CC[C@]1(O)C[C@H]2CN(CCc3c([nH]c4ccccc34)[C@@](C(=O)OC)(c3cc4c(cc3OC)N(C=O)[C@H]3[C@@](O)(C(=O)OC)[C@H](OC(C)=O)[C@]5(CC)C=CCN6CC[C@]43[C@@H]65)C2)C1` [vincristine, reference compound], the “KD vs tubulin relative to DIME” value (tubulin [4]; may be, relative to DIME) is given as “thousand-fold higher”.

In the case of `CC[C@]1(O)C[C@@H]2CN(CCc3c([nH]c4ccccc34)[C@@](C(=O)OC)(c3cc4c(cc3OC)N(C)[C@H]3[C@@](O)(C(N)=O)[C@H](O)[C@]5(CC)C=CCN6CC[C@]43[C@@H]65)C2)C1` [vindesine, 4-desacetyl vinblastine C-3 carboxamide], the neurotoxicity in humans [11] is listed as “less neurotoxicity than does vincristine”.
